In patent publication US20240252582A1, “METHODS FOR TREATING AMBLYOPIA” (City University of Hong Kong, priority 2023, published 2024):
Non-standard residues stand in square brackets, D forms with d. Phe(3-Br) = N[C@@H](Cc1cccc(Br)c1)C(=O)O; Nle = CCCC[C@H](N)C(=O)O

Columns and labels:
[1] = tested on: juvenile C57BL/6 mice model of amblyopia (LTMD); test: In-vivo electrophysiology (spike recording in V1), contralateral bias index after long-term monocular deprivation
Description: The mice are anesthetized through the application of a K-X combination during the surgical preparation. The body temperatures of the mice are maintained at 37° C. by use of a homeostatically controlled heating pad during the surgery. Following the induction of anesthesia, each mouse is mounted on a stereotaxic instrument (RWD Life Science, Shenzhen, China) and an incision is made along the midline of the head. The stereotaxic instrument is adjusted to place the bregma and lambda points of the skull on a flat skull surface (anteroposterior: −3.2 mm to −4.0 mm; mediolateral: 3.0-3.8 mm, relative to bregma). A piece of the scalp over the V1 is removed to expose the cortex, and a bone screw is fixed in the frontal bone as the reference electrode. The exposed cortical surface is then covered with extracellular saline (in mM: 125 NaCl, 5 KCl, 10 glucose, 10 4-(2-hydroxyethyl)-1-piperazineethanesulphonicacid [HEPES], and 2 CaCl2; pH adjusted to 7.4) to prevent drying of the surface. The electrode is lowered into the brain to an appropriate depth (V1≤1 mm) and is allowed to settle for 30 min before recording is begun. In each mouse, 3-4 separate penetrations are spaced evenly at least 200 μm apart across the binocular region of V1. The eyes are kept moist with ophthalmic lubricant ointment until recording to prevent drying while enabling clear optical transmission. At the end of the recording, the mice are euthanized by injection of an overdose of Dorminal (300 mg/kg).
Visual stimuli of sinusoidal drifting gratings with increasing orientation angles(0-330°) and 0.4 cpd are presented in random order to alternate eyes. The spike recordings are performed with the use of a polyimide-coated platinum/iridium (70:30) ribbon microelectrode array (Clunbury Scientific LLC, USA). The tip resistances are 30-50 kΩ. The A-M Systems 3600 (A-M Systems, USA) and CED Micro 1401-3 (Cambridge Electronic Design, UK) instruments are used as the amplifier and data acquisition system, respectively. The signals are sampled at 25 kHz and bandpass-filtered at 300 Hz-3 KHz for spike, amplified, and fed to spike2 software (Cambridge Electronic Design, UK). Offline analysis is performed using MATLAB (R2020b, Math Works, USA). To begin, the raw data are transformed into a MATLAB-compatible format. Spike sorting is used to distinguish various units collected at the same time in the spike data. Wave clus, a MATLAB tool, is used to categorize the units based on the characteristics of their waveforms.
The neuronal response in the Visual cortex (V1) is recorded extracellularly, while the same visual stimulus with varied orientation is presented to either of the eyes alternatively, and the relative strength of the response is determined.
To quantify the deprivation effect, the inventors calculate the contralateral bias index (CBI) from spikes (response from the single neuron) using the following formula:
where NT is the total number of units and NX is the number of units with OD scores equal to x (x=1, 2, 3, 5, 6, 7). For the sum of the number of cells in each category is used to calculate the CBI for each animal.
FIGS. 1A and 1B, show the timeline of the experimental setup, i.e. LTMD, surgery, dosing, and in-vivo electrophysiology used in the second and third experiments. In the second experiments, in juvenile after LTMD, saline or CCK8s (Cholecystokinin octapeptide (Tocris Bioscience, UK): 1 ul each day (10 ng/ul), Cholecystokinin octapeptide (Tocris Bioscience, UK)) is infused (treatment) for 15 days (from P42 to P57) in V1. […] The ipsilateral eye is dominated. Contrarily, in the group treated with CCK8s (infusion in V1), the ocular dominance shifts from the ipsilateral eye towards the contralateral eye (CBI=0.65, 12 animals) (FIG. 1G).
In juvenile after LTMD, 3r1 (a type of CCKBR agonist, Guangzhou Institute of Biomedicine and Health, affiliated with the Chinese Academy of Sciences, Guangzhou, China) (4.18 uM) is administered intraperitoneally (i.p). […]

[2] = tested on: juvenile C57BL/6 mice model of amblyopia (LTMD); test: Visual water behavioral test of visual acuity after long-term monocular deprivation; type: in vivo; settings: for Visual acuity: Long-term MD (P21-P42) mice, WT adult 0.44; for Performance (percentage accuracy) during training after treatment / Cutoff (70% accuracy) achieved during testing / Visual acuity, Mean±SEM (FIG. 2G, post hoc analysis): juvenile LTMD mice; for Performance (percentage accuracy) during training after treatment: cutoff 70% accuracy (FIG. 2F); for Visual acuity, Mean±SEM (FIG. 2G, post hoc analysis): WT 0.44±0.02 (P>0.05)
Source text: Amblyopia patients usually have poor visual acuity. It is believed that the method according to the invention can reverse the lost visual acuity in amblyopia patients. FIGS. 2A-2G illustrate the assessment of visual acuity using visual water maze. Dotted line represents the 70% accuracy as cutoff. As shown in FIGS. 2C-2E, WT adult (P60) mice with no MD show cutoff at cpd 0.45 achieved during testing by all the animals (12 animals). After LTMD in juvenile followed by saline (infusion)/CCK8s treatment, the mice show cutoff at cpd 0.30 and 0.52 respectively achieved during testing by all the animals (11 animals/12 animals respectively). After LTMD in juvenile followed by saline (i.p)/CCKBR agonist (3r1) treatment, the mice show cutoff at cpd 0.33 and 0.46 respectively achieved during testing by all the animals (11 animals/15 animals respectively). […] The performance of the animals during training in WT adult (P60) with no MD, before and after remained unchanged. After LTMD in juvenile, the performance of animals during training before and after saline (infusion) treatment remained unchanged and the performance of animals during training before and after CCK8s treatment show the difference. […] After LTMD in juvenile, the performance of animals during training before and after saline (i.p) treatment remained unchanged and the performance of animals during training before and after CCK-agonist (3r1) treatment show the difference. […] A significant difference is observed between saline (infusion) and CCK8s treated animals (P<0.001) and in between saline (i.p) and CCKBR agonist (3r1) (P<0.001). No significant difference in visual acuity observed in adult (P60), no MD and juvenile LTMD following CCK8s and CCKBR agonist (3r1) treated animals (P>0.05). Error bars in FIG. 2G indicate the standard error of the mean (SEM).
Visual water behavioral test is performed to show visual acuity improvement following long-term monocular deprivation after administration of CCK8s and CCKBR agonist (3r1). Each animal learns quickly to associate swimming to the escape platform placed below the screen displaying grating stimuli during pre-training phase and post-training phase. Animals of all groups learn serendipitously during training to swim to the end of the divider, and then look at each screen several times before making their choice.
FIGS. 2A and 2B show the behavioural experimental design of this example: (CCK8s) infusion in V1 and CCKBR agonist (3r1)(i.p). The testing criterion in the training phase (from P42 to P47) is reached for all mice within four sessions (32 trials). Average performance above 70% accuracy is maintained for all mice of different groups (FIG. 2F). The visual acuity of the groups is illustrated in FIGS. 2C-2E.

| Substance | Contralateral bias index (CBI) ([1]; juvenile LTMD mice, i.p., 4 doses on alternate days for 7 days, 0.0122890 mg/kg per dose, saline CBI=0.31) | Contralateral bias index (CBI) ([1]; juvenile LTMD mice, i.p., 8 doses on alternate days for 14 days, 0.0122890 mg/kg per dose, saline CBI=0.31) | Histogram of V1 cells, eye response bias ([1]; juvenile LTMD mice, treatment for fourteen days (FIG. 1J)) | Histogram of V1 cells, eye response bias ([1]; juvenile LTMD mice, treatment for seven days (FIG. 1I)) | Visual acuity ([2]; i.p., saline (i.p) 0.33) [c/d] | Performance (percentage accuracy) during training after treatment [2] | Cutoff (70% accuracy) achieved during testing ([2]; i.p., saline (i.p) 0.33, WT 0.45 (FIG. 2E)) [cpd] | Visual acuity, Mean±SEM (FIG. 2G, post hoc analysis) ([2]; i.p., saline (i.p) 0.33±0.01 (P<0.001)) [c/d] | Contralateral bias index (CBI) ([1]; juvenile LTMD (P21-P42) mice, infusion in V1, 1 ul each day (10 ng/ul), 15 days (P42-P57), saline CBI=0.33) | Histogram of V1 cells, eye response bias ([1]; juvenile LTMD mice, infusion 15 days (FIG. 1G)) | Visual acuity ([2]; infusion, saline (infusion) 0.3) [c/d] | Visual acuity, Mean±SEM (FIG. 2G, post hoc analysis) ([2]; infusion, saline 0.309±0.01 (P<0.001)) [c/d] | Cutoff (70% accuracy) achieved during testing ([2]; infusion, saline (infusion) 0.30, WT 0.45 (FIG. 2D)) [cpd] |
| --- | --- | --- | --- | --- | --- | --- | --- | --- | --- | --- | --- | --- | --- |
| Ac-W[Nle]D[Phe(3-Br)]-NH2 [3r1] | 0.66 | 0.68 | strong contralateral eye bias | strong contralateral eye bias | 0.46 | reaches beyond the cutoff | 0.46 | 0.46±0.02 | – | – | – | – | – |
| Cholecystokinin octapeptide [CCK8s, reference compound] | – | – | – | – | – | reaches beyond the cutoff | – | – | 0.65 | strong contralateral eye bias | 0.5 | 0.5±0.01 | 0.52 |
